Experimental data: patent US12252524B2, “GIP/GLP1 co-agonist compounds” (Eli Lilly and Company, priority 2018, dated 2025)
Numbered stars: 1 amine (or outer) side, 2 acyl side, 3 side chain; on linkers, the order of the positions; unused ones are H or OH. Square brackets hold non-standard residues; d marks the D form. Side chains are listed from the residue outwards. Peptide text beside a SMILES is read from it. * marks the point of attachment. C20 diacid = O=C(O)CCCCCCCCCCCCCCCCCCC(=O)*; γGlu = O=C(O)[C@H](CCC(=O)[*:2])N[*:1]; αMeF = C[C@](N)(Cc1ccccc1)C(=O)O; 3Pal = N[C@@H](Cc1cccnc1)C(=O)O; AEEA = NCCOCCOCC(=O)O; Aib = CC(C)(N)C(=O)O

What was measured:
[1] = target: human GLP-1 receptor (GLP-1R) (Homo sapiens, UniProt P43220); assay: cAMP pharmacological functional assay in presence of casein, hGLP-1R; assay type: cell-based; conditions: HEK293 cells expressing hGLP-1R, 0.1% Casein, geometric mean; read-out: hGLP1R cAMP Rel EC50 nM (SEM, n)
[2] = target: T1, gastric inhibitory peptide receptor (GIPR) (Homo sapiens, UniProt P48546); assay: cAMP pharmacological functional assay in presence of casein, hGIPR; assay type: cell-based; conditions: HEK293 cells expressing hGIPR, 0.1% Casein, geometric mean; read-out: hGIPR cAMP Rel EC50 nM (SEM, n)
T1 sequence (P48546 22-466): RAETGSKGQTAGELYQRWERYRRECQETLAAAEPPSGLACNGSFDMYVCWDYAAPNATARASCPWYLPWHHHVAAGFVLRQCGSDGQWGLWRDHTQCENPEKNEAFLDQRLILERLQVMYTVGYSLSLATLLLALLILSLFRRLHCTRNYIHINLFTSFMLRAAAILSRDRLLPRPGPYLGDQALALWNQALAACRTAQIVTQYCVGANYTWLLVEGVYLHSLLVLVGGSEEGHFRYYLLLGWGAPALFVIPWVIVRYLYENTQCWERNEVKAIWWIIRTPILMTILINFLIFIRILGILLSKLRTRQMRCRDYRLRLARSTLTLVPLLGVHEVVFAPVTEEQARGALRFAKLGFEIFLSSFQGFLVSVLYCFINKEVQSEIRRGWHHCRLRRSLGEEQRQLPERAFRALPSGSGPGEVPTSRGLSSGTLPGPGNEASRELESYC

human GLP-1 receptor (GLP-1R), sequence (P43220 24-463): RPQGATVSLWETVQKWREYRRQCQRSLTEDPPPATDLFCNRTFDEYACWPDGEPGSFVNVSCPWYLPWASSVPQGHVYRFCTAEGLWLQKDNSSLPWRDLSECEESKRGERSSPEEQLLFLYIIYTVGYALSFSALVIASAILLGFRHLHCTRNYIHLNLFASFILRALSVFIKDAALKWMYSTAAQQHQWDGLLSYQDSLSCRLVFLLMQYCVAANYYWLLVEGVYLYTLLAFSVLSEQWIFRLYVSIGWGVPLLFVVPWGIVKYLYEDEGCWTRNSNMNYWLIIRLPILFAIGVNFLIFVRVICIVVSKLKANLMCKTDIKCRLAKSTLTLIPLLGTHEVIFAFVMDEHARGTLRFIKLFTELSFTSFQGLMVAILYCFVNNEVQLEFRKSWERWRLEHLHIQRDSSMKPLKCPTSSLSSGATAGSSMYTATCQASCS

Structure (SMILES)	EC50 [1]	EC50 [2]
CC[C@H](C)[C@H](NC(=O)[C@H](CC(C)C)NC(=O)[C@H](Cc1ccc(O)cc1)NC(=O)[C@H](CCC(=O)O)NC(=O)[C@@H](NC(=O)[C@H](Cc1ccccc1)NC(=O)[C@H](C)NC(=O)C(C)(C)NC(=O)[C@H](CCC(N)=O)NC(=O)[C@H](C)NC(=O)[C@H](CCCCNC(=O)COCCOCCNC(=O)COCCOCCNC(=O)CC[C@H](NC(=O)CCCCCCCCCCCCCCCCCCC(=O)O)C(=O)O)NC(=O)[C@H](CCCCN)NC(=O)[C@H](CC(=O)O)NC(=O)[C@H](CC(C)C)NC(=O)[C@H](CC(C)C)NC(=O)[C@@H](NC(=O)[C@H](CO)NC(=O)[C@H](Cc1cccnc1)NC(=O)[C@H](CC(=O)O)NC(=O)[C@H](CO)NC(=O)[C@@H](NC(=O)[C@](C)(Cc1ccccc1)NC(=O)[C@@H](NC(=O)CNC(=O)[C@H](CCC(=O)O)NC(=O)C(C)(C)NC(=O)[C@@H](N)Cc1ccc(O)cc1)[C@@H](C)O)[C@@H](C)O)[C@@H](C)CC)[C@@H](C)CC)C(=O)N[C@@H](CCC(=O)O)C(=O)NCC(=O)NCC(=O)N1CCC[C@H]1C(=O)N[C@@H](CO)C(=O)N[C@@H](CO)C(=O)NCC(=O)N[C@@H](C)C(=O)N1CCC[C@H]1C(=O)N1CCC[C@H]1C(=O)N1CCC[C@H]1C(=O)N[C@@H](CO)C(N)=O [Example 132] (H-Y[Aib]EGT[αMeF]TSD[3Pal]SILLDKK([AEEA-AEEA-γGlu-C20 diacid])AQ[Aib]AFIEYLIEGGPSSGAPPPS-NH2)	0.26 nM	0.0657 nM
CC[C@H](C)[C@H](NC(=O)[C@H](CC(C)C)NC(=O)[C@H](Cc1ccc(O)cc1)NC(=O)[C@H](CCC(=O)O)NC(=O)[C@@H](NC(=O)[C@H](Cc1ccccc1)NC(=O)[C@H](C)NC(=O)C(C)(C)NC(=O)[C@H](CCC(N)=O)NC(=O)[C@H](C)NC(=O)[C@H](CCCCNC(=O)COCCOCCNC(=O)COCCOCCNC(=O)CC[C@H](NC(=O)CCCCCCCCCCCCCCCCCCC(=O)O)C(=O)O)NC(=O)[C@H](CCCCN)NC(=O)[C@H](CC(=O)O)NC(=O)[C@H](CC(C)C)NC(=O)[C@H](CC(C)C)NC(=O)[C@@H](NC(=O)[C@H](CO)NC(=O)[C@H](C)NC(=O)[C@H](CC(=O)O)NC(=O)[C@H](CO)NC(=O)[C@@H](NC(=O)[C@H](Cc1ccccc1)NC(=O)[C@@H](NC(=O)CNC(=O)[C@H](CCC(=O)O)NC(=O)C(C)(C)NC(=O)[C@@H](N)Cc1ccc(O)cc1)[C@@H](C)O)[C@@H](C)O)[C@@H](C)CC)[C@@H](C)CC)C(=O)N[C@@H](CCC(=O)O)C(=O)N[C@@H](C)C(=O)NCC(=O)N1CCC[C@H]1C(=O)N[C@@H](CO)C(=O)N[C@@H](CO)C(=O)NCC(=O)N[C@@H](C)C(=O)N1CCC[C@H]1C(=O)N1CCC[C@H]1C(=O)N1CCC[C@H]1C(=O)N[C@@H](CO)C(N)=O [Example 136] (H-Y[Aib]EGTFTSDASILLDKK([AEEA-AEEA-γGlu-C20 diacid])AQ[Aib]AFIEYLIEAGPSSGAPPPS-NH2)	0.06 nM	3.39 nM
